Reference: patent publication US20250145605A1, “CRYSTAL FORM AND SALT OF PHENOTHIAZINE COMPOUND, PREPARATION METHOD THEREFOR AND USE THEREOF” (CHENGDU HENGHAO INNOVATIVE SCIENCE AND TECHNOLOGY CO., LTD., priority 2022, published 2025)
pIC50: −log10 of the molar value.

Experiments:
[1] = system: mouse hippocampal neuronal cells HT22; assay: Inhibition of Erastin-induced ferroptosis, CCK8 cell viability test, HT22; format: cell-based; conditions: 24 h
Method: (§1) Experimental method: In this example, a screening model for ferroptosis was constructed to investigate a ferroptosis inhibitor. Specifically, the screening model for ferroptosis was mainly based on the CCK8 cell viability test. Firstly, mouse hippocampal neuronal cells HT22 and human neuroblastoma SH-SY5Y cells were cultured in a dish. 80 μL of cells (5000 cells/well) in logarithmic growth phase were seeded to a 96-well plate per well, and then cultured in an incubator at 37° C., 5% CO2 to allow adhesion of cells. After 24 h, 10 μL of the compound of the present disclosure at various concentrations prepared with the specified medium and 10 μL of Erastin (ferroptosis inducer) at a final concentration of […] were added. 3 replicate wells were set for each compound to ensure the accuracy of the results. A positive control group (10 μL of a certain concentration of the compound Ferrostain-1 and 10 μL of Erastin (ferroptosis inducer) prepared with the same medium were added with reference to the above description). […] The absorbance at 450 nm was detected by a microplate reader to calculate the inhibition rate of ferroptosis by the drug. […]
(§2) The inhibition rate change curve was fitted and the IC50 was calculated by the software GraphPadPrism6.

[2] = system: human neuroblastoma SH-SY5Y cells; assay: Inhibition of Erastin-induced ferroptosis, CCK8 cell viability test, SH-SY5Y; format: cell-based; conditions: Erastin at a final concentration of 10 M, 24 h
Method: as §1, §2

Structure (SMILES)	pIC50 ([1]; Mus musculus, HT-22, HT22, Erastin at a final concentration of 10 µM)	pIC50 ([2]; Homo sapiens)	pIC50 ([1]; HT22, Erastin at a final concentration of 10 µM)	pIC50 [2]
CC(c1ccc(N2CCN(C)CC2)cc1)c1ccc2c(c1)Nc1ccccc1S2 (stereo not shown)	8.54	8.85	–	–
CCOC(=O)c1ccc(NC2CCCCC2)c(N)c1 [Ferrostain-1]	–	–	7.02	7.27
